The record followed here is patent US4649157A, “Pharmaceutical compositions containing 5-phenyl-1,3-dioxoalkenyl compounds” (G. D. Searle & Co., priority 1986, dated 1987).

Each structure is given as a SMILES string.

The experiment deals with Leukotriene C4 (LTC4) and leukotriene D4 (LTD4) biosynthesis by cultured rat basophilic leukemia cells (RBL-1 cells). Description: Inhibition of leukotriene biosynthesis (LTC4 and LTD4, ionophore-induced) in cultured RBL-1 cells, quantitated by radioimmunoassay. Conditions: LTC4 equivalents by [3H]-RIA. The format is cell-based. The protocol: Leukotriene C4 (LTC4) and leukotriene D4 (LTD4) biosynthesis by cultured rat basophilic leukemia cells (RBL-1 cells) was induced by incubation of the cells with an ionophore. See B. A. Jakschik, S. Falkenheim, and C. W. Parker, "Precursor Role of Arachidonic Acid in Release of Slow Reacting Substance from Rat Basophilic Leukemia Cells," Proc Natl. Acad. Sci. U.S.A., 74, 4577-4581 (1977). The LTC4 and LTD4 biosynthesis was quantitated at LTC4 equivalents by radioimmunoassay using the Leukotriene C4 [^3 H]-RIA Kit available commercially from New England Nuclear, 549 Albany Street, Boston, Mass. Compounds were screened initially at 10^-4 M or 10^-5 M and compared with nordihydroguaiaretic acid (the reference standard). A compound inhibiting leukotriene synthesis at any given concentration by at least 30% relative to the reference standard was considered active. […] Table A lists IC50 's for representative compounds of this invention.

As a reminder, the IC50 is the midpoint of a concentration-inhibition curve.

For `CCOC(=O)CC(=O)C=Cc1ccccc1` [Example 1, ethyl 3-oxo-5-phenyl-4-pentenoate], the IC50 came out at 20 µM.

For `CCOC(=O)CC(=O)C=Cc1cccc(Oc2ccccc2)c1` [Example 20, ethyl 3-oxo-5-(3-phenoxyphenyl)-4-pentenoate], the half-maximal inhibitory concentration (IC50) is 27 µM.

Regarding `CCOC(=O)CC(=O)C=Cc1cccc(Oc2ccc(Cl)cc2)c1` [Example 21, ethyl 5-[3-(4-chlorophenoxy)phenyl]-3-oxo-4-pentenoate], the IC50 was 26.5 µM.

`CCOC(=O)CC(=O)C=Cc1ccc(OC)cc1` [Example 23, ethyl 5-(4-methoxyphenyl)-3-oxo-4-pentenoate]: the IC50 was determined as 67 µM.

Take `CCOC(=O)CC(=O)C=Cc1cccc2ccccc12` [Example 27, ethyl 5-(1-naphthyl)-3-oxo-4-pentenoate]: the IC50 was 27.2 µM.
